One experiment deals with V. harveyi CqsA (Vibrio campbellii, UniProt A7N6R9). Nature of the experiment: Coupled-enzyme assay for CqsA enzyme kinetics. The class given is biochemical. The conditions noted are these: Vh CqsA, acyl CoA substrate, 200 µM SAM.
Another experiment addresses V. cholerae CqsA (Vibrio cholerae serotype O1, UniProt Q9KM65). Nature of the experiment: Coupled-enzyme assay for CqsA enzyme kinetics. The class given is biochemical. Conditions: for Km / Vmax / kcat: Vc CqsA, acyl CoA substrate, 200 µM SAM.
Experiment [1] has as its target V. harveyi wild-type CqsS receptor (Vibrio campbellii, UniProt A7N6S2). Nature of the experiment: cell-based. In kind it is cell-based.
In a further experiment the target is V. cholerae CqsS C170F (Vibrio cholerae serotype O1, UniProt Q9KM66, C170F). In kind it is cell-based.
Experiment [2] concerns the target V. cholerae CqsS receptor (wild-type) (Vibrio cholerae serotype O1, UniProt Q9KM66). In kind it is cell-based.

One may read the Km as the concentration of substrate that gives half-maximal velocity. What is called Vmax is the top rate of the reaction or transport when substrate is in excess. The term kcat denotes the number of substrate molecules converted per active site and unit of time at saturation. Turning to `CCCCCCCC(=O)SCCNC(=O)CCNC(=O)C(O)C(C)(C)COP(=O)(O)OP(=O)(O)OC[C@H]1O[C@@H](n2cnc3c(N)ncnc32)[C@H](O)[C@@H]1OP(=O)(O)O` (stereo partly drawn) [C8 CoA, octanoyl CoA], at V. harveyi CqsA, the Km was 14.1 ± 1.3 µM, the Vmax came out at 0.64 ± 0.02 µM/min and the turnover number (kcat) amounted to 0.178 ± 0.0067 s⁻¹. Moreover, on V. cholerae CqsA, the Km came to 73 ± 4.9 µM, the maximum rate (Vmax) turned out to be 1.4 ± 0.05 µM/min and the catalytic constant (kcat) stood at 0.075 ± 0.00283 s⁻¹.

For the compound `CCCCCCCC(O)C(=O)CC` (stereo not drawn) [4-hydroxyundecan-3-one], in experiment [1], the “agonist activity on V. harveyi CqsS (light production in JMH626), in words” value (“agonist activity on V. harveyi CqsS” below) was “inactive”.

For the compound `CCCCCCCCCC(=O)[C@@H](O)CC` [CAI-1, (S)-3-hydroxytridecan-4-one], the “agonist activity on V. harveyi CqsS” value in experiment [1] is listed as “insensitive”. For the same compound, the “detection by V. cholerae CqsS C170F, in words” value at V. cholerae CqsS C170F was “only detects Ea-C8-CAI-1 and C8-CAI-1, but not CAI-1 and Ea-CAI-1”.

As a reminder, the EC50 is the midpoint of the concentration-response curve. Higher therefore signals weaker potency. Take `CCCCCCCC(=O)C(O)CC` (stereo not drawn) [C8-CAI-1, 3-hydroxyundecan-4-one]: the response in experiment [1] (EC50, V. harveyi wild-type CqsS) was half-maximal at 5 µM (EC50). In experiment [1], the “agonist activity on V. harveyi CqsS” value is given as “weak agonist”. Further, the “increase in light production” value in experiment [1] (JMH626, 10 µM) is listed as “approximately 400 fold”. In experiment [1] (JMH626, 50 µM), the “light production on increasing the concentration” value is given as “did not further activate light production”.

Take `CCCCCCCCCC(=O)[C@@H](N)CC` [Am-CAI-1, (S)-3-aminotridecan-4-one]: the “potency relative to hydroxy counterpart” value was “comparable to the CAI-1 and C8-CAI-1 counterparts” in experiment [1] (V. harveyi CqsS, data not shown); “comparable to the CAI-1 and C8-CAI-1 counterparts” in experiment [2] (V. cholerae CqsS, data not shown).

Consider `C/C=C(\N)C(=O)CCCCCCC` [Ea-C8-CAI-1, (Z)-3-aminoundec-2-en-4-one], for which the “agonist activity on V. harveyi CqsS” value in experiment [1] is “induce maximal light production”. Besides, the “difference in EC50 between C8-CAI-1 and Ea-C8-CAI-1” value in experiment [2] was determined as 30 fold.

As for `CCCCCCCCCC(=O)SCCNC(=O)CCNC(=O)C(O)C(C)(C)COP(=O)(O)OP(=O)(O)OC[C@H]1O[C@@H](n2cnc3c(N)ncnc32)[C@H](O)[C@@H]1OP(=O)(O)O` (stereo partly drawn) [C10 CoA, decanoyl coenzyme A], on V. cholerae CqsA, the “substrate preference of V. cholerae CqsA, C10-CoA over C8-CoA (Km and kcat)” value is listed as “four- to sixfold”; the Michaelis-Menten constant (Km) came to 13 ± 3.1 µM; the Vmax was 1.2 ± 0.15 µM/min; the kcat was 0.325 ± 0.0417 s⁻¹.

The record behind these values is paper PMC3285556 (Molecular Microbiology, 2011).
